Results as given in PubChem BioAssay (NCI).
Several values for one entry are separate records, joined by “and”; a condition that tells them apart may be missing. Equal values may be shown once.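 Growth conditions: 96-well plates. Treatment: test compound, 48 hours, 5 concentrations. Analysis: linear interpolation between bracketing concentrations; unreached endpoints set to highest concentration. At the GI50, growth is halved. At the TGI there is no net growth.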

What was measured:
Test in all cases: NCI tumour cell line growth inhibition, 48 h
A549 NSCLC = system: A549 NSCLC
BT-549 breast = system: BT-549 breast
EKVX NSCLC = system: EKVX NSCLC
K-562 leukemia = system: K-562 leukemia
M14 melanoma = system: M14 melanoma
NCI/ADR-RES ovarian = system: NCI/ADR-RES ovarian
OVCAR-3 ovarian = system: OVCAR-3 ovarian
SF-295 CNS = system: SF-295 CNS
SK-OV-3 ovarian = system: SK-OV-3 ovarian
UO-31 renal = system: UO-31 renal

Compound: CCCCCCCC/C=C/CCCCCCCC1=NC(C)(C)CN1C(C)(C)CO
- GI50 (A549 NSCLC): 1.87 µM
- TGI (A549 NSCLC): 3.82 µM
- GI50 (BT-549 breast): 11.3 µM
- TGI (BT-549 breast): 24.1 µM
- GI50 (EKVX NSCLC): 1.53 µM
- TGI (EKVX NSCLC): 4.36 µM
- GI50 (K-562 leukemia): 2.12 µM
- TGI (K-562 leukemia): 5.48 µM
- GI50 (M14 melanoma): 1.78 µM
- TGI (M14 melanoma): 3.22 µM
- GI50 (NCI/ADR-RES ovarian): 2.1 µM
- TGI (NCI/ADR-RES ovarian): 4.81 µM
- GI50 (OVCAR-3 ovarian): 1.74 µM
- TGI (OVCAR-3 ovarian): 3.13 µM
- GI50 (SF-295 CNS): 1.81 µM
- TGI (SF-295 CNS): 3.52 µM
- GI50 (SK-OV-3 ovarian): 14.4 µM
- TGI (SK-OV-3 ovarian): 29.3 µM

Compound: OCc1ccc(N(Cc2ccc(F)cc2)Cc2ccc(F)cc2)cc1Cl
- GI50 (A549 NSCLC): 6.72 µM
- TGI (A549 NSCLC): 22.1 µM
- GI50 (BT-549 breast): 13.5 µM
- TGI (BT-549 breast): 28.4 µM
- GI50 (K-562 leukemia): 4.93 µM
- TGI (K-562 leukemia): 23.1 µM
- GI50 (M14 melanoma): 5.79 µM
- TGI (M14 melanoma): 20.2 µM
- GI50 (NCI/ADR-RES ovarian): 12.3 µM
- TGI (NCI/ADR-RES ovarian): 30.4 µM
- GI50 (OVCAR-3 ovarian): 10.3 µM
- TGI (OVCAR-3 ovarian): 22.7 µM
- GI50 (SK-OV-3 ovarian): 13.6 µM
- TGI (SK-OV-3 ovarian): 26.5 µM
- GI50 (UO-31 renal): 3.49 µM
- TGI (UO-31 renal): 16.2 µM

Compound: COC1=CC(=O)O/C1=C(\OC)C1OC1c1ccccc1 (stereo not drawn)
- TGI (A549 NSCLC): > 100 µM
- TGI (BT-549 breast): > 100 µM
- TGI (EKVX NSCLC): > 100 µM
- TGI (M14 melanoma): > 100 µM
- TGI (NCI/ADR-RES ovarian): > 100 µM
- TGI (OVCAR-3 ovarian): > 100 µM
- TGI (SF-295 CNS): > 100 µM
- TGI (SK-OV-3 ovarian): > 100 µM
- TGI (UO-31 renal): > 100 µM

Compound: O=C1NC(=NCCc2ccc(Cl)cc2)S/C1=C\c1ccc2ncccc2c1
- GI50 (A549 NSCLC): 15 µM
- TGI (A549 NSCLC): > 25 µM
- GI50 (BT-549 breast): 13.9 µM
- TGI (BT-549 breast): > 25 µM
- GI50 (K-562 leukemia): > 25 µM
- TGI (K-562 leukemia): > 25 µM
- GI50 (M14 melanoma): 25 µM
- TGI (M14 melanoma): > 25 µM
- GI50 (NCI/ADR-RES ovarian): 19.5 µM
- TGI (NCI/ADR-RES ovarian): > 25 µM
- GI50 (OVCAR-3 ovarian): > 25 µM
- TGI (OVCAR-3 ovarian): > 25 µM
- GI50 (SF-295 CNS): 24.4 µM
- TGI (SF-295 CNS): > 25 µM
- GI50 (SK-OV-3 ovarian): 17.5 µM
- TGI (SK-OV-3 ovarian): > 25 µM
- GI50 (UO-31 renal): > 18.9 µM
- TGI (UO-31 renal): > 25 µM

Compound: CCOc1c(Br)cc(Br)cc1C=C(C#N)C#N
- TGI (A549 NSCLC): > 10 µM
- TGI (EKVX NSCLC): > 10 µM
- TGI (K-562 leukemia): > 10 µM
- TGI (NCI/ADR-RES ovarian): 4.98 µM
- TGI (OVCAR-3 ovarian): > 10 µM
- TGI (SF-295 CNS): > 10 µM
- TGI (SK-OV-3 ovarian): > 10 µM

Compound: CC(C)Cc1cnc(CC(C)C)c(=O)[nH]1
- TGI (A549 NSCLC): > 100 µM
- TGI (BT-549 breast): > 100 µM
- TGI (EKVX NSCLC): > 100 µM
- TGI (K-562 leukemia): > 100 µM
- TGI (M14 melanoma): > 100 µM
- TGI (OVCAR-3 ovarian): > 100 µM
- TGI (SF-295 CNS): > 100 µM
- TGI (SK-OV-3 ovarian): > 100 µM
- TGI (UO-31 renal): > 100 µM

Compound: OCC(O)C(O)C(O)C(/C=N\Nc1ncnc2c(Br)cc(Br)cc12)=N/Nc1ncnc2c(Br)cc(Br)cc12 (stereo not drawn)
- GI50 (A549 NSCLC): 5.04 µM and 15.4 µM
- TGI (A549 NSCLC): 21.6 µM and > 100 µM
- GI50 (EKVX NSCLC): 1.88 µM and 4.49 µM
- TGI (K-562 leukemia): 26.9 µM and > 100 µM
- TGI (M14 melanoma): 28.3 µM and 44.2 µM
- TGI (OVCAR-3 ovarian): 16.5 µM and > 100 µM
- GI50 (SF-295 CNS): 2.46 µM and 10.9 µM
- TGI (SK-OV-3 ovarian): 10 µM and > 100 µM
- GI50 (UO-31 renal): 21.7 µM and > 100 µM
- TGI (UO-31 renal): 54.2 µM and > 100 µM

Compound: O=C1c2cccc3cccc(c23)C(=O)N1CCCCCN1CCN(CCN=c2cc3n(-c4ccc(Cl)cc4)c4ccccc4nc-3cc2Nc2ccc(Cl)cc2)CC1
- GI50 (A549 NSCLC): 25.9 µM
- TGI (A549 NSCLC): > 50 µM
- GI50 (BT-549 breast): 22.2 µM
- TGI (BT-549 breast): > 50 µM
- GI50 (EKVX NSCLC): 14.5 µM
- TGI (EKVX NSCLC): > 50 µM
- GI50 (K-562 leukemia): 6.92 µM
- TGI (K-562 leukemia): 33.3 µM
- GI50 (M14 melanoma): 7.53 µM
- TGI (M14 melanoma): 16.5 µM
- GI50 (NCI/ADR-RES ovarian): 6.95 µM
- TGI (NCI/ADR-RES ovarian): 19.4 µM
- GI50 (OVCAR-3 ovarian): 1.07 µM
- TGI (OVCAR-3 ovarian): 3.4 µM
- GI50 (SF-295 CNS): 13 µM
- TGI (SF-295 CNS): > 50 µM
- GI50 (SK-OV-3 ovarian): > 50 µM
- TGI (SK-OV-3 ovarian): > 50 µM

Compound: O=C1CC23CCCCCCCCCCC2(C1)CC(=O)C3 (stereo not drawn)
- TGI (A549 NSCLC): > 100 µM
- TGI (EKVX NSCLC): > 100 µM
- TGI (K-562 leukemia): 73.3 µM
- TGI (M14 melanoma): 44.4 µM
- TGI (OVCAR-3 ovarian): 41.5 µM
- TGI (SF-295 CNS): > 100 µM
- TGI (SK-OV-3 ovarian): 65.2 µM
- TGI (UO-31 renal): 61.2 µM
